Here are results for 1 compound from publication PMC12329525, “All-stage targeted therapy for invasive cryptococcosis through interaction between the secretory protein Cig1 and hemin” (Asian Journal of Pharmaceutical Sciences, 2025).

Structures are written as SMILES.

One assay addresses T1, BSA (Bos taurus, UniProt P02769).
T1 construct: gene ALB
In words: UV-vis absorption spectra (Soret shift of complex). Format: binding. As to conditions: PBS, 37 °C, 15 min; hemin in excess over BSA.

A further assay addresses T2, Cig1 (Cryptococcus neoformans, UniProt J9VUB8).
T2 construct: gene CNAG_01653
As to conditions: PBS, 25 °C; hemin from DMSO stock.

T2 sequence (J9VUB8 entry or part of it): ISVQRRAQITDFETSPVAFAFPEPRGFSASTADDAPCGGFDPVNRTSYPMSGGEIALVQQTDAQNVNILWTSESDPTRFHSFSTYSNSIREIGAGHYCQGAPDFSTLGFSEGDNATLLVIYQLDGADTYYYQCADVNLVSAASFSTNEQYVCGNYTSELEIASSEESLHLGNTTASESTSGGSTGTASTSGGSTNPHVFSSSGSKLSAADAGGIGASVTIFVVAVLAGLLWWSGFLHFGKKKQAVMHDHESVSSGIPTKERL
T1 sequence (P02769 25-607): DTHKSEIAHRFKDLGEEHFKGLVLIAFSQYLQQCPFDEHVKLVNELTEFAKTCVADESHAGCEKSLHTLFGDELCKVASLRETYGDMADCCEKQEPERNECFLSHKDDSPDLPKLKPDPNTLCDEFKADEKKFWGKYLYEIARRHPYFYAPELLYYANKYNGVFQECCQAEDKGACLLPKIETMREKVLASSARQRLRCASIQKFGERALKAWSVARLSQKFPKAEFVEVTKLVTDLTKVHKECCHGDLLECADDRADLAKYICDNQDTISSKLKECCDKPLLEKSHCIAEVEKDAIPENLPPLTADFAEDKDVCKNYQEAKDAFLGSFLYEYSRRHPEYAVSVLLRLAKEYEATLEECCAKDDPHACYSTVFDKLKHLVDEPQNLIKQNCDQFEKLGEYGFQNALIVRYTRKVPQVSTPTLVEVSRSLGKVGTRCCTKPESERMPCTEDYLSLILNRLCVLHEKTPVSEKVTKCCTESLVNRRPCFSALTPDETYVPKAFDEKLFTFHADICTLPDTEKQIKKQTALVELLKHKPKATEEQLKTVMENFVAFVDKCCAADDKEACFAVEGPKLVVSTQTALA

`C=CC1=C(C)C2=Cc3c(C=C)c(C)c4[n]3[Fe]([Cl])[n]3c(c(C)c(CCC(=O)O)c3=CC3=NC(=C4)C(C)=C3CCC(=O)O)=CC1=N2` [hemin]: the “UV-vis absorption spectra (Soret shift of complex)” value on BSA was “Hemin@BSA exhibited a red shift in its absorption peak”. For the same compound, on Cig1, the Kd is listed as 9.81×10^‒7 mol/l.
